From article PMC4804240, “Crystal structure of the vicilin from Solanum melongena reveals existence of different anionic ligands in structurally similar pockets” (Scientific Reports, 2016)

Columns and labels:
[1] = target: SM80.1, 7S vicilin from Solanum melongena (eggplant) seeds (Solanum melongena); assay: crystal structure; R32 crystal form, 1.5 A; one monomer in the asymmetric unit, trimer formed around the threefold crystallographic axis; crystals grown in 10% (w/v) PEG 3350, 1.5 M-2 M sodium malonate, hanging drop, 25°C
SM80.1 = target: T1, SM80.1 (Solanum virginianum, UniProt A0A158RFR1); assay: X-ray crystal structure, […] Å; format: binding; conditions: crystals from PEG 3350, sodium malonate, 25°C
T1 construct: native protein from seeds (ammonium sulphate fraction, gel filtration); 45 kDa band; homotrimer; 392 residues in structure
T1 sequence (A0A158RFR1 1-392): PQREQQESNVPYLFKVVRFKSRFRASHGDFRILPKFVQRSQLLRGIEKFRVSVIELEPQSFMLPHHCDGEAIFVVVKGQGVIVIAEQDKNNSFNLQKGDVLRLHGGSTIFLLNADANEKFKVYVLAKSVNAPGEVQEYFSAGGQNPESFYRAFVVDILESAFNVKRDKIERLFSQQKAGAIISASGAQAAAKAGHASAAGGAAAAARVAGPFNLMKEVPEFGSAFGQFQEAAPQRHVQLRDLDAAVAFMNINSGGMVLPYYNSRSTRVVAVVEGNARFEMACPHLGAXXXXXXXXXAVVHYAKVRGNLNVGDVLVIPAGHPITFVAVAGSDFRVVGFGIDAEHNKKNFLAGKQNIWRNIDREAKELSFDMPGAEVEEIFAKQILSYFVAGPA

Work on “SM80.1, 7S vicilin from Solanum melongena (eggplant) seeds (natural protein)” yielded a stoichiometry N [1] of 3.
In the case of `O=C1CC[C@@H](C(=O)O)N1` [PCA, pyroglutamate], the “X-ray crystal structure, 1.5 Å” value (SM80.1; co-purified endogenous ligand, N-terminal beta-barrel pocket (His65, Cys67)) is reported as “The N-terminal domain has cyclic lactam of glutamate, called pyroglutamate”.
With `CC(=O)O` [ACT, acetate] the “X-ray crystal structure, 1.5 Å” value (SM80.1; bound without being listed in crystallisation mix, C-terminal beta-barrel pocket (Tyr260, Asn262, Arg267, Lys346)) was “Acetate moiety was present in the corresponding pocket in the C-terminal domain”.
